Test results: ChEMBL document CHEMBL2046287, “Conformation study of 2-arylbenzimidazoles as inhibitors of Chlamydia pneumoniae growth” (2012)

What follows are molecules tested on Chlamydia pneumoniae (assay: Growth inhibition of Chlamydia pneumoniae at 10 uM). Conditions: read-out: GI.
Assay type: functional

| SMILES | inhibition of growth at 10 µM [%] |
| --- | --- |
| Cc1ccccc1C(=O)Nc1ccccc1 | 99 |
| Cc1ccccc1-c1nc2ccccc2[nH]1 | 59 |
| c1ccc(-c2nc3ccccc3[nH]2)cc1 | 89 |
| O=C(Nc1ccccc1)c1ccco1 | 45 |
| O=C(Nc1ccccc1)c1ccsc1 | 68 |
| O=C(Nc1ccccc1)c1ccccc1C(F)(F)F | 96 |
| Cn1c(-c2ccccc2)nc2ccccc21 | 0 |
| O=C(Nc1ccccc1)c1cccs1 | 89 |
| O=C(Nc1ccccc1)c1ccoc1 | 78 |
| Cn1cccc1C(=O)Nc1ccccc1 | 80 |
| O=C(Nc1ccccc1)c1ccccc1F | 0 |
| COc1ccccc1C(=O)Nc1ccccc1 | 0 |
| O=C(Nc1ccccc1)c1cscn1 | 39 |
| O=C(Nc1ccccc1)c1ccccn1 | 36 |
| c1ccc(-c2nc3ccccc3o2)cc1 [2-PHENYLBENZO[D]OXAZOLE] | 61 |
| O=C(Nc1ccccc1)c1ccccc1 [N-PHENYLBENZAMIDE] | 99 |
